This passage reports T/C results from PubChem BioAssay AID330 (DTP/NCI, 2004).

This assay deals with P388 leukemia ip, CD2F1 mice, survival T/C. As to the kind of experiment: NCI In Vivo Anticancer Drug Screen. Data for tumor model P388 Leukemia (intraperitoneal) in CD2F1 (CDF1) mice. The note with it: endpoint: median survival time, higher = longer survival. An outline of the steps:
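Mice carrying the transplanted tumor received test compound or vehicle. Survival was recorded in each group, and the value is the treated-group measurement divided by that of the vehicle-treated control group.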

[1] abbreviates: dose: 25.0 mg/kg/injection, schedule: Q01DX005 (ip), vehicle: Klucel (hydroxypropylcellulose) (HPC).
The mark [2] stands for this setting: dose: 50.0 mg/kg/injection, schedule: Q01DX005 (ip), vehicle: Klucel (hydroxypropylcellulose) (HPC).
Where [3] appears, read: dose: 100.0 mg/kg/injection, schedule: Q01DX005 (ip), vehicle: Klucel (hydroxypropylcellulose) (HPC).
Setting [4] is: dose: 200.0 mg/kg/injection, schedule: Q01DX005 (ip), vehicle: Klucel (hydroxypropylcellulose) (HPC).
[5] abbreviates: dose: 50.0 mg/kg/injection, schedule: Q01DX005 (ip), vehicle: saline with Tween-80.
[6] abbreviates: dose: 100.0 mg/kg/injection, schedule: Q01DX005 (ip), vehicle: saline with Tween-80.
Where [7] appears, read: dose: 200.0 mg/kg/injection, schedule: Q01DX005 (ip), vehicle: saline with Tween-80.
The mark [8] stands for this setting: dose: 100.0 mg/kg/injection, schedule: Q01DX001 (ip), vehicle: saline with Tween-80.

Several values for one entry are separate records, joined by “and”; a condition that tells them apart may be missing. Equal values may be shown once. Inconclusive results and toxic doses are left out. Peptide text beside a SMILES is read from it. * marks the point of attachment. Cbz = O=C(OCc1ccccc1)*

For `C=CCc1ccccc1OC`, the T/C (dose: 50.0 mg/kg/injection, schedule: Q04DX003 (ip), vehicle: saline) was 100 % of control; the T/C (dose: 100.0 mg/kg/injection, schedule: Q04DX003 (ip), vehicle: saline) was 95 % of control; the T/C (dose: 200.0 mg/kg/injection, schedule: Q04DX003 (ip), vehicle: saline) is 100 % of control.

Turning to `CCCC(CCC)NCC(O)c1cc(-c2ccc(C(F)(F)F)cc2)nc(C(F)(F)F)c1` (stereo not given), the T/C was 102 % of control (dose: 12.5 mg/kg/injection, schedule: Q01DX009 (ip), vehicle: saline with Tween-80); 107 % of control (dose: 25.0 mg/kg/injection, schedule: Q01DX009 (ip), vehicle: saline with Tween-80); 100 % of control and 91 % of control (dose: 50.0 mg/kg/injection, schedule: Q01DX009 (ip), vehicle: saline with Tween-80).

Turning to `CC1=CC(C)=NC(N)=NN1`, the T/C runs as follows: (dose: 25.0 mg/kg/injection, schedule: Q01DX009 (ip), vehicle: water) 99 % of control; (dose: 50.0 mg/kg/injection, schedule: Q01DX009 (ip), vehicle: water) 108 % of control; (dose: 100.0 mg/kg/injection, schedule: Q01DX009 (ip), vehicle: water) 103 % of control; (dose: 200.0 mg/kg/injection, schedule: Q01DX009 (ip), vehicle: water) 119 % of control.

For the compound `N#Cc1ccc[n+](CC(=O)c2ccc3ccccc3c2)c1`, the T/C (dose: 6.25 mg/kg/injection, schedule: Q01DX005 (ip), vehicle: Klucel (hydroxypropylcellulose) (HPC)) was 103 % of control; the T/C (dose: 12.5 mg/kg/injection, schedule: Q01DX005 (ip), vehicle: Klucel (hydroxypropylcellulose) (HPC)) is 103 % of control; the T/C under setting [1] is 100 % of control.

Consider `CCN(CC)CCOC(=O)c1c(C)oc2cc3c(C(=O)OCCN(CC)CC)c(C)oc3cc12`, for which the T/C under setting [1] was 98 % of control, the T/C under setting [2] was 92 % of control, the T/C under setting [3] was 94 % of control and the T/C under setting [4] is 113 % of control.

Turning to `CCOC(=O)C1Cc2c(n(C3CCCCC3)c(=O)n(C)c2=O)OC1c1ccccc1` (stereo not given), the T/C by setting is: under setting [2], 100 % of control; under setting [3], 96 % of control; under setting [4], 90 % of control.

Take `O=c1c2sc3ccccc3c2ncn1CN1CCOCC1`: the T/C under setting [2] was 112 % of control, the T/C under setting [3] is 121 % of control and the T/C under setting [4] was 118 % of control.

Consider `CCc1cccc(CC)c1N1C(=O)C(=O)C(C(C)=O)C1=O` (stereo not given), for which the T/C runs as follows: (dose: 25.0 mg/kg/injection, schedule: Q01DX005 (ip), vehicle: saline with Tween-80) 101 % of control; under setting [5], 99 % of control and 101 % of control; under setting [6], 101 % of control; under setting [7], 89 % of control.

As for `COc1cccc2c1C(=N)c1c(O)c3c(c(O)c1C2=O)C[C@@](O)(C(O)CO)C[C@@H]3OC1CC(N2CCOCC2)C(O)C(C)O1` (stereo not given in full), the T/C reads like this: (dose: 3.12 mg/kg/injection, schedule: Q04DX003 (ip), vehicle: water) 112 % of control and 115 % of control; (dose: 6.25 mg/kg/injection, schedule: Q04DX003 (ip), vehicle: water) 118 % of control; (dose: 12.5 mg/kg/injection, schedule: Q04DX003 (ip), vehicle: water) 108 % of control and 120 % of control; (dose: 18.7 mg/kg/injection, schedule: Q04DX003 (ip), vehicle: water) 105 % of control; (dose: 50.0 mg/kg/injection, schedule: Q04DX003 (ip), vehicle: water) 115 % of control and 161 % of control and 221 % of control; (dose: 75.0 mg/kg/injection, schedule: Q04DX003 (ip), vehicle: water) 118 % of control.

Take `COc1ccc2c(c1)C1CN(Cc3ccccc31)C2` (stereo not given): the T/C under setting [8] was 99 % of control.

In the case of `O=S(=O)(c1ccccc1)N1CC2(CN(S(=O)(=O)c3ccccc3)c3ccccc31)CN(S(=O)(=O)c1ccccc1)c1ccccc1N(S(=O)(=O)c1ccccc1)C2`, the T/C by setting is: under setting [8], 90 % of control; (dose: 200.0 mg/kg/injection, schedule: Q01DX001 (ip), vehicle: saline with Tween-80) 87 % of control; (dose: 400.0 mg/kg/injection, schedule: Q01DX001 (ip), vehicle: saline with Tween-80) 88 % of control.

On to `CN(C)/N=C1/CC(=O)CC(C)(C)C1`, for which the T/C is 102 % of control (dose: 60.0 mg/kg/injection, schedule: Q01DX005 (ip), vehicle: Klucel (hydroxypropylcellulose) (HPC)); 100 % of control (dose: 120.0 mg/kg/injection, schedule: Q01DX005 (ip), vehicle: Klucel (hydroxypropylcellulose) (HPC)); 99 % of control (dose: 240.0 mg/kg/injection, schedule: Q01DX005 (ip), vehicle: Klucel (hydroxypropylcellulose) (HPC)).

On to `C=CC1CCCCC1=O` (stereo not given), for which the T/C by setting is: under setting [5], 110 % of control; under setting [6], 111 % of control; under setting [7], 111 % of control.

As to `CCCCCCCCCCCCOCCCOP(=O)([O-])OCC[N+](C)(C)C`, the T/C was 105 % of control (dose: 6.25 mg/kg/injection, schedule: Q01DX005 (ip), vehicle: saline); 100 % of control (dose: 12.5 mg/kg/injection, schedule: Q01DX005 (ip), vehicle: saline); 91 % of control (dose: 25.0 mg/kg/injection, schedule: Q01DX005 (ip), vehicle: saline); 91 % of control (dose: 50.0 mg/kg/injection, schedule: Q01DX005 (ip), vehicle: saline); 107 % of control (dose: 100.0 mg/kg/injection, schedule: Q01DX005 (ip), vehicle: saline).

Turning to `O=C(NC(CO)C(=O)NC(Cc1ccc(O)cc1)C(=O)O)OCc1ccccc1` (stereo not drawn) (Cbz-Ser-Tyr-OH; configuration not given here), the T/C is, setting by setting: under setting [2], 98 % of control; under setting [3], 100 % of control; under setting [4], 101 % of control.

In the case of `CNC(=S)N/N=C(\c1ccccc1)c1ccccn1`, the T/C reads like this: (dose: 50.0 mg/kg/injection, schedule: Q01DX009 (ip), vehicle: saline) 100 % of control; (dose: 50.0 mg/kg/injection, schedule: Q01DX009 (ip), vehicle: suspension in saline) 100 % of control and 105 % of control; (dose: 100.0 mg/kg/injection, schedule: Q01DX009 (ip), vehicle: saline) 102 % of control; (dose: 100.0 mg/kg/injection, schedule: Q01DX009 (ip), vehicle: suspension in saline) 103 % of control and 90 % of control; (dose: 200.0 mg/kg/injection, schedule: Q01DX009 (ip), vehicle: saline) 100 % of control; (dose: 200.0 mg/kg/injection, schedule: Q01DX009 (ip), vehicle: suspension in saline) 96 % of control and 98 % of control. The T/C was 122 % of control (dose: 400.0 mg/kg/injection, schedule: Q01DX009 (ip), vehicle: saline); 102 % of control and 97 % of control (dose: 400.0 mg/kg/injection, schedule: Q01DX009 (ip), vehicle: suspension in saline).

For `Cc1nc2scc(-c3ccc(Cl)cc3)n2c(=O)c1CN1CCCCC1`, the T/C reads like this: (dose: 50.0 mg/kg/injection, schedule: Q04DX002 (ip), vehicle: Klucel (hydroxypropylcellulose) (HPC)) 97 % of control; (dose: 100.0 mg/kg/injection, schedule: Q04DX002 (ip), vehicle: Klucel (hydroxypropylcellulose) (HPC)) 95 % of control; (dose: 200.0 mg/kg/injection, schedule: Q04DX002 (ip), vehicle: Klucel (hydroxypropylcellulose) (HPC)) 97 % of control.

Regarding `O=[N+]([O-])c1cc2c(c([N+](=O)[O-])c1)OC(C(Cl)(Cl)Cl)OC2C(Cl)(Cl)Cl` (stereo not given), the T/C is 107 % of control under setting [2], 103 % of control under setting [3] and 117 % of control under setting [4].
